Measurements published in patent US20020119178A1 (priority 2001, published 2002).
Where two headings read alike, the source gives them in different places. Starred links: 1 amine or outer side, 2 acyl side, 3 side chain; linkers in the order of their positions; H or OH if unused. Positions of bridges follow the written chain, without caps; N, C: chain ends. Non-standard residues stand in square brackets, D forms with d. Residues, ends and D or L forms follow the SMILES beside them. Chains are numbered I, II in the order given. Actinocin(9to1) = Cc1c2oc3c(C)ccc(C(=O)[*:1])c3nc-2c(C(=O)[*:2])c(N)c1=O; NMeV = CN[C@H](C(=O)O)C(C)C; Sar = CNCC(=O)O

Key:
[1] = for residual tritiated actinomycin D remaining on the discs following 8 days of elution: physiological medium
Method: In FIG. 1, the electrochemical cell 10 is a standard three-electrode setup. A saturated Calomel electrode (SCE) was used as the reference electrode 12 and the counter electrode 14 was a circular platinum foil (3 cm^2). A 316L stainless steel disk (0.8 cm^2 area) connected to a platinum wire 16 was used as the working electrode 18. The cell was filled with an aqueous electrodeposition solution composed of 5 mM sulfuric acid and 20 mM of an aryldiazonium-containing molecule as described in FIG. 2 for the cyclic voltammetry electrochemical process. The electrodeposition of the aryldiazonium onto the stainless steel device was applied using 2 consecutive cyclic scans ranging from −0.5 V to −1.75 V relatively to the SCE reference electrode. The current-voltage response was followed on a XY recorder. Following electrodeposition, the device was consecutively washed with water and acetonitrile to remove impurities.
FIG. 5 illustrates the necessity of the presence of a molecule containing a diazonium moiety to retain tritiated actinomycin D deposited on the surface of stainless steel 316L discs. In this experiment, stainless steel 316L discs, which are made out of the same material as the stainless steel stents and other endovascular devices, are either functionalized with 4-bromobenzenediazonium or left bare. The discs are then exposed to a solution containing 30 μg of tritiated actinomycin D whereas the solvent is acetonitrile or ethanol. Following dipping, the discs are left to dry at room temperature until the solvent evaporates. The discs are first washed in deionized water for 5 minutes followed by a 5-minute wash in a physiologic solution. The discs are then counted in a scintillation counter.
FIG. 6 illustrates the loading and retention capacity of tritiated actinomycin D immobilized as described previously onto stainless steel 316L discs, with the exception however that water was also used as solvent for immobilizing tritiated actinomycin D. Following immobilization, the discs were first washed for 5 minutes in deionized water followed by a 5-minute wash in a physiologic solution. The loading of tritiated actinomycin D onto the stainless steel discs varied according of the type of solvent used: acetonitrile>ethanol>water.
FIG. 7 illustrates the effect of varying concentrations of the 4-bromobenzenediazonium solution on the loading and retention of 30 μg of tritiated actinomycin D following 8 days of elution in a physiological medium. Stainless steel 316L discs were exposed to varying concentrations of 4-bromobenzenediazonium solution before electrodeposition with the set-up as described in FIG. 1. Actinomycin D loading in the ethanol solution increased 1.6 fold, from 4324±329 for […] to 7146±80 for 20 mM. […]

[2] = system: human saphenous vein smooth muscle cells (HSV-SMC); assay: HSV-SMC proliferation assay (MTS), drugs at known concentrations; format: cell-based; details: read-out: IC50 (concentration at which the proliferation is reduced by 50%)
Method: (§1) A proliferation assay was performed using human saphenous vein smooth muscle cells (HSV-SMC) with cells at passage 3-5. HSV-SMC were established in 96-well plates for 24 hours then serum starved for 48 hours. […] A positive control (100%) was set for cells exposed to DMEM supplemented with 20% FBS only while a negative control (0%) was set for cells exposed to only unsupplemented DMEM. Cells were stimulated for 72 hours with the anti-proliferative drug containing culture media. A solution of [3-(4,5-dimethylthiazol-2-yl)-5-(3-carboxymethoxyphenyl)-2-(4-sulfophenyl)-2H-tetrazolium](MTS, a cell proliferation marker) is then added onto the cells for 3 hours. Absorbance at 490 nm is recorded using a 96-well plate reader.

[3] = system: human saphenous vein smooth muscle cells (HSV-SMC); format: cell-based; details: bromobenzenediazonium coated discs only, no drug
Method: as §1

[4] = Homo sapiens, HSV-SMC passage 3-5, 20% FBS, 72 hours, MTS absorbance 490 nm

Cc1c2oc3c(C)ccc(C(=O)N[C@@H]4C(=O)N[C@H](C(C)C)C(=O)N5CCC[C@H]5C(=O)N(C)CC(=O)N(C)[C@@H](C(C)C)C(=O)O[C@@H]4C)c3nc-2c(C(=O)N[C@@H]2C(=O)N[C@H](C(C)C)C(=O)N3CCC[C@H]3C(=O)N(C)CC(=O)N(C)[C@@H](C(C)C)C(=O)O[C@@H]2C)c(N)c1=O [actinomycin D] (I: T[dV]P[Sar][NMeV] / II: T[dV]P[Sar][NMeV]; ester I:1-I:C, II:1-II:C; linker I:N-II:N via Actinocin(9to1))
residual tritiated actinomycin D remaining on the discs following 8 days of elution ([1]; 0.02 mM 4-bromobenzenediazonium): 348±52
residual tritiated actinomycin D remaining on the discs following 8 days of elution ([1]; 20 mM 4-bromobenzenediazonium): 2539±43
drug remaining on the discs after 10 days of elution ([1]; 4-bromobenzenediazonium functionalized discs loaded with acetonitrile, physiological solution): ~20%
drug remaining on discs following 10 days of elution ([1]; functionalized discs loaded with acetonitrile or ethanol): substantial amounts
IC50 ([2]; HSV-SMC passage 3-5, 20% FBS, 72 hours, MTS absorbance 490 nm): 81 pM

COc1cccc2c1C(=O)c1c(O)c3c(c(O)c1C2=O)C[C@@](O)(C(=O)CO)C[C@@H]3O[C@H]1C[C@H](N)[C@H](O)[C@H](C)O1 [doxorubicin]
IC50 [2, 4]: 8000 pM

F[B-](F)(F)F.N#[N+]c1ccc(Br)cc1 [molecule 5, 4-bromobenzenediazonium tetrafluoroborate]
effect of elution on cell proliferation [3]: does not inhibit cell proliferation

CC(=O)O[C@H]1C(=O)[C@@]2(C)[C@H]([C@H](OC(=O)c3ccccc3)[C@]3(O)C[C@H](OC(=O)[C@H](O)[C@@H](NC(=O)c4ccccc4)c4ccccc4)C(C)=C1C3(C)C)[C@]1(OC(C)=O)CO[C@@H]1C[C@@H]2O [paclitaxel]
IC50 [2, 4]: 48000 pM

CO[C@H]1C[C@@H]2CC[C@@H](C)[C@@](O)(O2)C(=O)C(=O)N2CCCC[C@H]2C(=O)O[C@H]([C@H](C)C[C@@H]2CC[C@@H](O)[C@H](OC)C2)CC(=O)[C@H](C)/C=C(\C)[C@@H](O)[C@@H](OC)C(=O)[C@H](C)C[C@H](C)/C=C/C=C/C=C/1C [rapamycin]
IC50 ([2]; Homo sapiens, 72 h): 120 pM

CC[C@]1(O)C[C@@H]2CN(CCc3c([nH]c4ccccc34)[C@@](C(=O)OC)(c3cc4c(cc3OC)N(C)[C@H]3[C@@](O)(C(=O)OC)[C@H](OC(C)=O)[C@]5(CC)C=CCN6CC[C@]43[C@@H]65)C2)C1 [vinblastine]
IC50 [2, 4]: 740 pM

CC[C@]1(O)C[C@H]2CN(CCc3c([nH]c4ccccc34)[C@@](C(=O)OC)(c3cc4c(cc3OC)N(C=O)[C@H]3[C@@](O)(C(=O)OC)[C@H](OC(C)=O)[C@]5(CC)C=CCN6CC[C@]43[C@@H]65)C2)C1 [vincristine]
IC50 ([2]; Homo sapiens, 72 h): 820 pM
